A word on the IC50: it is the concentration that gives 50% inhibition.

Our source for the IC50 and inhibition values is patent publication US20240083853A1, “HSD17B13 INHIBITORS AND USES THEREOF” (FL2022-001, Inc., priority 2020, published 2024).

The target of the test is T1, Recombinant human HSD17B13 enzyme (Homo sapiens, UniProt Q7Z5P4).
T1 sequence (Q7Z5P4 20-300): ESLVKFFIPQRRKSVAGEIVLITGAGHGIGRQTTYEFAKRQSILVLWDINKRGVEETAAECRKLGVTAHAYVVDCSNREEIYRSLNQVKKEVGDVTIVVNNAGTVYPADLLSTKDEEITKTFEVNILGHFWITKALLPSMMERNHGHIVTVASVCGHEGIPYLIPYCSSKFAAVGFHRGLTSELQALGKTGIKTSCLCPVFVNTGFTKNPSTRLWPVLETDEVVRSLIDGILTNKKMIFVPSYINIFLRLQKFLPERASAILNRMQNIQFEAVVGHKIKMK
Briefly: HSD17b13 NAD(P)H-Glo biochemical assay. The note with it: for IC50: 50 uM estradiol, 1 mM NAD+, NAD(P)H-Glo luminescence, read-out: HSD17β13 IC50. Here is the method:
Example B-1: HSD17b13 NAD(P)H-Glo Biochemical Assay
Recombinant human HSD17B13 enzyme. Substrate: estradiol (Sigma β-Estradiol E8875), 100 mM in DMSO. Cofactor: NAD+ Grade I free acid (Sigma 10127965001), 20 mM in H2O. Assay buffer final concentration: 20 mM Tris pH7.4 with 0.002% Tween-20 and 0.02% BSA. Assay performed in 384 well solid bottom plate (Corning 3570). Enzymatic activity detected by NAD(P)H-Glo™ Detection System (Promega G9062).
Inhibitor compounds were serially diluted in DMSO and then further diluted in assay buffer to a 10× concentration consisting of 1% DMSO.
HSD17b13 enzyme was diluted in 1× assay buffer to the desired enzyme concentration based on the specific activity of the enzyme lot. 20 uL of diluted enzyme was added to each well along with 2.5 uL of 10× inhibitor solution. Assay plate was incubated at RT for 20 minutes, and then 2.5 uL of a 10× substrate/cofactor mix was added to each well for a final concentration of 50 uM estradiol and 1 mM NAD+. Assay plate was incubated at 37° C. for 3 hours. NAD(P)H-Glo™ Detection System reagents were prepared according to manufacturer's specifications, and 25 uL was added to each well. After incubating for 1 hour at RT, luminescence was measured.

As to `Oc1c(F)cc2cnn(-c3ccc(C4=CCOCC4)cc3)c2c1F` [Compound 27.3, 1-(4-(3,6-Dihydro-2H-pyran-4-yl)phenyl)-5,7-difluoro-1H-indazol-6-ol], the IC50 was < 100 nM.

On to `CC1(C)CCN(c2ccc(-n3nnc4cc(F)c(O)c(F)c43)cc2)CC1` [Compound 21, 1-(4-(4,4-Dimethylpiperidin-1-yl)phenyl)-5,7-difluoro-1H-benzo[d][1,2,3]triazol-6-ol], for which the IC50 is < 100 nM.

In the case of `Oc1cccc(-c2ccc(-n3ncc4c(F)cc(O)c(F)c43)cc2)c1` [Compound 16, 4,7-Difluoro-1-(3′-hydroxy-[1,1′-biphenyl]-4-yl)-1H-indazol-6-ol], the IC50 lay in the range of 100 to 1000 nM.

With `CC1(C)CCN(c2ccc(-n3nnc4cc(F)c(O)c(F)c43)nc2)CC1` [Compound 26.14, 1-(5-(4,4-Dimethylpiperidin-1-yl)pyridin-2-yl)-5,7-difluoro-1H-benzo[d][1,2,3]triazol-6-ol], the IC50 is < 100 nM.

Take `CCC1(CC)CCN(c2ccc(-n3ncc4cc(F)c(O)c(F)c43)cc2)CC1` [Compound 24.7, 1-(4-(4,4-Diethylpiperidin-1-yl)phenyl)-5,7-difluoro-1H-indazol-6-ol]: the IC50 is < 100 nM.

For the molecule `Oc1c(F)cc2cnn(-c3ccc(N4CCC(F)(F)CC4)cc3)c2c1F` [Compound 23.20, 1-(4-(4,4-Difluoropiperidin-1-yl)phenyl)-5,7-difluoro-1H-indazol-6-ol], the IC50 is < 100 nM.

As for `Cc1c(O)c(F)cc2cnn(-c3ccc(N4CCN(S(C)(=O)=O)CC4)cc3)c12` [Compound 24.12, 5-Fluoro-7-methyl-1-(4-(4-(methylsulfonyl)piperazin-1-yl)phenyl)-1H-indazol-6-ol], the inhibition at 10 µM (3 h, at 10 uM compound, read-out: HSD17β13 % at 10 uM) turned out to be 35%.

In the case of `Oc1c(F)cc2nnn(-c3ccc(N4CC5(CCOCC5)C4)cc3)c2c1F` [Compound 20.10, 1-(4-(7-Oxa-2-azaspiro[3.5]nonan-2-yl)phenyl)-5,7-difluoro-1H-benzo[d][1,2,3]triazol-6-ol], the 50% inhibitory concentration (IC50) was < 100 nM.

In the case of `CC1(C)CN(S(C)(=O)=O)CCN1c1ccc(-n2ncc3cc(F)c(O)c(F)c32)cc1` [Compound 23.6, 1-(4-(2,2-Dimethyl-4-(methylsulfonyl)piperazin-1-yl)phenyl)-5,7-difluoro-1H-indazol-6-ol], the IC50 fell in the range of 100 to 1000 nM.

As to `Oc1cccc(-c2ccc(-n3ncc4c(F)c(F)c(O)cc43)cc2)c1` [Compound 8, 4,5-Difluoro-1-(3′-hydroxy-[1,1′-biphenyl]-4-yl)-1H-indazol-6-ol], the IC50 lay in the range of 100 to 1000 nM.

In the case of `CS(=O)(=O)N1CC2(CN(c3ccc(-n4ncc5cc(F)c(O)c(F)c54)cc3)C2)C1` [Compound 20.23, 5,7-Difluoro-1-(4-(6-(methylsulfonyl)-2,6-diazaspiro[3.3]heptan-2-yl)phenyl)-1H-indazol-6-ol], the half-maximal inhibitory concentration (IC50) lay in the range of 100 to 1000 nM.

Consider `CC1(C)CCN(c2cnc(-n3nnc4cc(F)c(O)c(F)c43)nc2)CC1` [Compound 26.20, 1-(5-(4,4-Dimethylpiperidin-1-yl)pyrimidin-2-yl)-5,7-difluoro-1H-benzo[d][1,2,3]triazol-6-ol], for which the IC50 was < 100 nM.

On to `Oc1c(F)cc2nnn(-c3cnc(N4CC5(CCOCC5)C4)cn3)c2c1F` [Compound 26.18, 1-(5-(7-Oxa-2-azaspiro[3.5]nonan-2-yl)pyrazin-2-yl)-5,7-difluoro-1H-benzo[d][1,2,3]triazol-6-ol], for which the IC50 is 100 to 1000 nM.

In the case of `CS(=O)(=O)N1CCN(c2ccc(-n3nc(F)c4cc(F)c(O)c(F)c43)cc2)CC1` [Compound 6, 3,5,7-Trifluoro-1-(4-(4-(methylsulfonyl)piperazin-1-yl)phenyl)-1H-indazol-6-ol], the IC50 lay within 100 to 1000 nM.

As for `CS(=O)(=O)NC1CCN(c2ccc(-n3ncc4cc(F)c(O)c(F)c43)cc2)CC1` [Compound 23.17, N-(1-(4-(5,7-Difluoro-6-hydroxy-1H-indazol-1-yl)phenyl)piperidin-4-yl)methanesulfonamide], the IC50 lay in the range of 100 to 1000 nM.

Take `Oc1cc2c(cnn2-c2ccc(-c3ccccc3Cl)cc2)cc1F` [Compound 13.6, 1-(2′-Chloro-[1,1′-biphenyl]-4-yl)-5-fluoro-1H-indazol-6-ol]: the IC50 was 100 to 1000 nM.

As to `Oc1cccc(-c2ccc(-n3ncc4c(F)cc(O)cc43)cc2)c1` [Compound 2.8, 4-Fluoro-1-(3′-hydroxy-[1,1′-biphenyl]-4-yl)-1H-indazol-6-ol], the IC50 was in the range of 1000 to 30000 nM.

With `COCC1(C)CCN(c2ccc(-n3ncc4cc(F)c(O)c(F)c43)cc2)CC1` [Compound 20.18, 5,7-Difluoro-1-(4-(4-(methoxymethyl)-4-methylpiperidin-1-yl)phenyl)-1H-indazol-6-ol], the IC50 is < 100 nM.

Take `CS(=O)(=O)N1CCCC(c2ccc(-n3ncc4cc(F)c(O)c(F)c43)cc2)C1` (centres unmarked) [Compound 30.1, 5,7-Difluoro-1-(4-(1-(methylsulfonyl)piperidin-3-yl)phenyl)-1H-indazol-6-ol]: the IC50 was < 100 nM.

Take `Oc1cc2c(cnn2-c2ccc(Oc3ccccc3)cc2)cc1F` [Compound 2.3, 5-Fluoro-1-(4-phenoxyphenyl)-1H-indazol-6-o1]: the IC50 fell in the range of 100 to 1000 nM.

Regarding `CCC1(CC)CN(c2ccc(-n3ncc4cc(F)c(O)c(F)c43)cc2)C1` [Compound 24, 1-(4-(3,3-Diethylazetidin-1-yl)phenyl)-5,7-difluoro-1H-indazol-6-ol], the IC50 was < 100 nM.

`Oc1c(F)cc2cnn(-c3ncc(-c4ccc(Cl)cc4)cn3)c2c1F` [Compound 18.4, 1-(5-(4-Chlorophenyl)pyrimidin-2-yl)-5,7-difluoro-1H-indazol-6-ol]: the IC50 was < 100 nM.

For the molecule `[O-][S+]1CC2(CN(c3ccc(-n4ncc5cc(F)c(O)c(F)c54)cc3)C2)C1` [Compound 32.2, 6-(4-(5,7-Difluoro-6-hydroxy-1H-indazol-1-yl)phenyl)-2-thia-6-azaspiro[3.3]heptane 2-oxide], the IC50 was 100 to 1000 nM.

`CS(=O)(=O)C1CCN(c2ccc(-n3ncc4cc(F)c(O)c(F)c43)cc2)C1` (centres unmarked) [Compound 22.2, 5,7-Difluoro-1-(4-(3-(methylsulfonyl)pyrrolidin-1-yl)phenyl)-1H-indazol-6-ol]: the IC50 was in the range of 100 to 1000 nM.

Consider `N#CC1CCN(c2ccc(-n3ncc4cc(F)c(O)c(F)c43)cc2)CC1` [Compound 22, 1-(4-(5,7-Difluoro-6-hydroxy-1H-indazol-1-yl)phenyl)piperidine-4-carbonitrile], for which the IC50 was < 100 nM.

Consider `CC1(C)CCN(c2ccc(-n3ncc4cc(F)c(O)c(F)c43)nc2)CC1` [Compound 26.3, 1-(5-(4,4-Dimethylpiperidin-1-yl)pyridin-2-yl)-5,7-difluoro-1H-indazol-6-ol], for which the IC50 was < 100 nM.

For the molecule `Oc1ccc(-c2ccc(-n3ncc4cc(F)c(O)c(F)c43)cc2)cc1` [Compound 13.1, 5,7-Difluoro-1-(4′-hydroxy-[1,1′-biphenyl]-4-yl)-1H-indazol-6-ol], the IC50 is < 100 nM.

With `CS(=O)(=O)N1CCC(c2ccc(-n3ncc4cc(F)c(O)c(F)c43)cc2)CC1` [Compound 27.7, 5,7-Difluoro-1-(4-(1-(methylsulfonyl)piperidin-4-yl)phenyl)-1H-indazol-6-ol], the IC50 was < 100 nM.

Consider `Cc1c(F)c(O)cc2c1cnn2-c1ccc(-c2cccc(O)c2)cc1` [Compound 4.2, 5-Fluoro-1-(3′-hydroxy-[1,1′-biphenyl]-4-yl)-4-methyl-1H-indazol-6-ol], for which the IC50 was 100 to 1000 nM.

For the molecule `Cc1cc(-c2ccc(O)cc2)ccc1-n1ncc2cc(F)c(O)cc21` [Compound 15.1, 5-Fluoro-1-(4′-hydroxy-3-methyl-[1,1′-biphenyl]-4-yl)-1H-indazol-6-ol], the IC50 was 100 to 1000 nM.

Consider `CC(C)C1(C)CCN(c2ccc(-n3ncc4cc(F)c(O)c(F)c43)cc2)CC1` [Compound 24.6, 5,7-Difluoro-1-(4-(4-isopropyl-4-methylpiperidin-1-yl)phenyl)-1H-indazol-6-ol], for which the IC50 was < 100 nM.

As to `CC1(C)CCN(c2ccc(-n3nnc4c(C(F)(F)F)c(F)c(O)cc43)cc2)CC1` [Compound 41.1, 1-(4-(4,4-Dimethylpiperidin-1-yl)phenyl)-5-fluoro-4-(trifluoromethyl)-1H-benzo[d][1,2,3]triazol-6-ol], the IC50 was in the range of 100 to 1000 nM.

Regarding `CS(=O)(=O)C1CCN(c2ccc(-n3ncc4cc(F)c(O)c(F)c43)cc2)CC1` [Compound 22.3, 5,7-Difluoro-1-(4-(4-(methylsulfonyl)piperidin-1-yl)phenyl)-1H-indazol-6-ol], the IC50 is 100 to 1000 nM.

For `Oc1ccc(-c2ccc(-n3nnc4cc(F)c(O)cc43)cc2)cc1` [Compound 10, 5-Fluoro-1-(4′-hydroxy-[1,1′-biphenyl]-4-yl)-1H-benzo[d][1,2,3]triazol-6-ol], the IC50 was < 100 nM.

With `Cc1ccccc1-c1ccc(-n2ncc3cc(F)c(O)cc32)cc1` [Compound 13.9, 5-Fluoro-1-(2′-methyl-[1,1′-biphenyl]-4-yl)-1H-indazol-6-ol], the IC50 was in the range of 100 to 1000 nM.
